This is an account of results in the supplement of paper PMC11208160.
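Further: IS621 bridge recombinase in Escherichia coli cells against a fixed T5 target plasmid.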

The nature of this data set: recombinant UMI read abundance after kanamycin selection (control-corrected) (log10(CPM+1)); higher = more efficient recombination; extreme values may be limits of the assay; sequences stand for … in AGTGCAGAGAAAATCGGCCAGTTTTCTCTGCCTGCAGTCCGCATGCCGTGGGACCCCTTGGGTTCTAACCTGTTGCCTAGATTTATGCAGCGGACTGCCTTTCTCCCAAAGTGATAAACCGG…AGGTTGGTTTCACT; site = the 11-nt donor. Put shortly: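 Values are reported as log10(CPM+1), obtained by converting sequencing counts to CPM, averaging replicates and scaling by control-derived factors. The counts came from recombinant UMIs amplified by PCR across the donor–target junction. These UMIs came from a pooled Escherichia coli screen of donor and donor-binding-loop pairs for the IS621 bridge recombinase, plated with IPTG (0.07 mM) plus kanamycin or left unselected, in two replicates each.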
Take “GACAAACCATGGACCGGTTTTCCCGGTAATCCGTATTTGGG (site GACAAACCTGC)”: the “recombinant UMI read abundance (log10)” value was determined as 0.
The result for “GACAAACCATGGACCGGTTTTCCCGGTAATCCGTATTTGGG (site GACAAACCTTC)” reads 0; that for “GACAATCCATGGACCGGTTTTCCCGGTAATCCGTATTTGAA (site GACAATCCTTT)”, 0.601; that for “GACAATCCATGGACCGGTTTTCCCGGTAATCCGTATTTGAA (site GCCAATCCTTT)”, 0.
To “GACAATCCATGGACCGGTTTTCCCGGTAATCCGTATTTGAA (site GGCAATCCTTT)” belongs 0.0165; to “GACAATCCATGGACCGGTTTTCCCGGTAATCCGTATTTGAA (site GTCAATCCTTT)”, 0.0122; to “GACACAGCATGGACCGGTTTTCCCGGTAATCCGTATTTGAC (site GACACAGCTGT)”, 2.44.
“GACACGTCATGGACCGGTTTTCCCGGTAATCCGTATTTGCC (site GACACGTCTGG)”: the “recombinant UMI read abundance (log10)” value amounted to 2.45.
Turning to “GACAGCTCATGGACCGGTTTTCCCGGTAATCCGTATTTGGT (site GACAGCTCTAC)”, the “recombinant UMI read abundance (log10)” value worked out at 1.68.
With “GACAGCTCATGGACCGGTTTTCCCGGTAATCCGTATTTGTC (site GACAGCTCTGA)”, the “recombinant UMI read abundance (log10)” value worked out at 1.15.
To “GACCAGCCATGGACCGGTTTTCCCGGTAATCCGTATTTGTT (site GACCAGCCTAA)” belongs 0; to “GACCGCTCATGGACCGGTTTTCCCGGTAATCCGTATTTGGC (site GACCGCTCTGC)”, 2.43; to “GACCGGGCATGGACCGGTTTTCCCGGTAATCCGTATTTGAA (site GACCGGGCTTT)”, 0.143.
The result for “GACCGGGCATGGACCGGTTTTCCCGGTAATCCGTATTTGCG (site GACCGGGCTCG)” reads 0; that for “GACCGTTCATGGACCGGTTTTCCCGGTAATCCGTATTTGCT (site GACCGTTCTAG)”, 1.7; that for “GACCTCTCATGGACCGGTTTTCCCGGTAATCCGTATTTGTA (site GACCTCTCTTA)”, 2.09.
The result for “GACCTTTCATGGACCGGTTTTCCCGGTAATCCGTATTTGTT (site GACCTTTCTAA)” reads 0.
On to “GACGACGCATGGACCGGTTTTCCCGGTAATCCGTATTTGTC (site GACGACGCTGA)”, for which the “recombinant UMI read abundance (log10)” value came to 2.6.
The result for “GACGATTCATGGACCGGTTTTCCCGGTAATCCGTATTTGAT (site GACGATTCTAT)” reads 2.03.
The result for “GACGATTCATGGACCGGTTTTCCCGGTAATCCGTATTTGTT (site GAAGATTCTAA)” reads 0.149; that for “GACGATTCATGGACCGGTTTTCCCGGTAATCCGTATTTGTT (site GACGATTCTAA)”, 2.04.
The result for “GACGATTCATGGACCGGTTTTCCCGGTAATCCGTATTTGTT (site GAGGATTCTAA)” reads 0; that for “GACGATTCATGGACCGGTTTTCCCGGTAATCCGTATTTGTT (site GATGATTCTAA)”, 0.263.
Take “GACGGCCCATGGACCGGTTTTCCCGGTAATCCGTATTTGTT (site AACGGCCCTAA)”: the “recombinant UMI read abundance (log10)” value was found to be 0.00882.
The result for “GACGGCCCATGGACCGGTTTTCCCGGTAATCCGTATTTGTT (site CACGGCCCTAA)” reads 0.0467; that for “GACGGCCCATGGACCGGTTTTCCCGGTAATCCGTATTTGTT (site GACGGCCCTAA)”, 0.
To “GACGGCCCATGGACCGGTTTTCCCGGTAATCCGTATTTGTT (site TACGGCCCTAA)” belongs 0.00762; to “GACTAACCATGGACCGGTTTTCCCGGTAATCCGTATTTGGT (site GACAAACCTAC)”, 0.0462.
To “GACTAACCATGGACCGGTTTTCCCGGTAATCCGTATTTGGT (site GACCAACCTAC)” belongs 0.00701; to “GACTAACCATGGACCGGTTTTCCCGGTAATCCGTATTTGGT (site GACGAACCTAC)”, 0.
As for “GACTAACCATGGACCGGTTTTCCCGGTAATCCGTATTTGGT (site GACTAACCTAC)”, the “recombinant UMI read abundance (log10)” value came out at 0.
The result for “GACTATTCATGGACCGGTTTTCCCGGTAATCCGTATTTGTA (site GACTATTCTTA)” reads 1.34; that for “GACTCCTCATGGACCGGTTTTCCCGGTAATCCGTATTTGAA (site GACTCCTCTTT)”, 1.75; that for “GACTGATCATGGACCGGTTTTCCCGGTAATCCGTATTTGGC (site GACTGATCTGC)”, 2.46.
Turning to “GACTGGACATGGACCGGTTTTCCCGGTAATCCGTATTTGAC (site GAATGGACTGT)”, the “recombinant UMI read abundance (log10)” value was determined as 0.
To “GACTGGACATGGACCGGTTTTCCCGGTAATCCGTATTTGAC (site GACTGGACTGT)” belongs 1.89; to “GACTGGACATGGACCGGTTTTCCCGGTAATCCGTATTTGAC (site GAGTGGACTGT)”, 0.438; to “GACTGGACATGGACCGGTTTTCCCGGTAATCCGTATTTGAC (site GATTGGACTGT)”, 0.
The result for “GACTGGCCATGGACCGGTTTTCCCGGTAATCCGTATTTGCA (site GAATGGCCTTG)” reads 0; that for “GACTGGCCATGGACCGGTTTTCCCGGTAATCCGTATTTGCA (site GACTGGCCTTG)”, 0; that for “GACTGGCCATGGACCGGTTTTCCCGGTAATCCGTATTTGCA (site GAGTGGCCTTG)”, 0.
To “GACTGGCCATGGACCGGTTTTCCCGGTAATCCGTATTTGCA (site GATTGGCCTTG)” belongs 0.0169; to “GAGAAAACATGGACCGGTTTTCCCGGTAATCCGTATTTGCT (site GAGAAAACTAG)”, 1.16.
With “GAGAAAACATGGACCGGTTTTCCCGGTAATCCGTATTTGCT (site GCGAAAACTAG)”, the “recombinant UMI read abundance (log10)” value was determined as 0.0152.
The result for “GAGAAAACATGGACCGGTTTTCCCGGTAATCCGTATTTGCT (site GGGAAAACTAG)” reads 0; that for “GAGAAAACATGGACCGGTTTTCCCGGTAATCCGTATTTGCT (site GTGAAAACTAG)”, 0; that for “GAGAAATCATGGACCGGTTTTCCCGGTAATCCGTATTTGCG (site GAGAAATCTCG)”, 0.
To “GAGAACCCATGGACCGGTTTTCCCGGTAATCCGTATTTGGA (site GAGAACCCTTC)” belongs 0; to “GAGAAGACATGGACCGGTTTTCCCGGTAATCCGTATTTGAA (site GAGAAGACTTT)”, 1.82.
The result for “GAGAAGCCATGGACCGGTTTTCCCGGTAATCCGTATTTGTC (site GAGAAGCCTGA)” reads 0; that for “GAGAATACATGGACCGGTTTTCCCGGTAATCCGTATTTGCA (site AAGAATACTTG)”, 0.
On to “GAGAATACATGGACCGGTTTTCCCGGTAATCCGTATTTGCA (site CAGAATACTTG)”, for which the “recombinant UMI read abundance (log10)” value was determined as 0.0136.
